According to PubChem BioAssay (NCI):
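Five compound concentrations were applied to cells in 96-well plates for 48 hours; endpoints were derived by simple linear interpolation of the resulting dose-response curve. Abbreviation: GI50, concentration required for 50% inhibition of growth. TGI is the concentration that stops growth completely.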

Key:
Assay in all cases: growth of human tumour cells (NCI), 48 h
[1] = test system: SK-MEL-5 melanoma
[2] = test system: UO-31 renal
[3] = test system: TK-10 renal
[4] = test system: T-47D breast
[5] = test system: 786-0 renal
[6] = test system: NCI-H226 lung
[7] = test system: HS 578T breast
[8] = test system: SNB-75 CNS
[9] = test system: KM12 colon
[10] = test system: U251 CNS
[11] = test system: SF-295 CNS
[12] = test system: MDA-MB-435
[13] = test system: UACC-257 melanoma
[14] = test system: SW-620 colon
[15] = test system: SK-OV-3 ovarian
[16] = test system: NCI-H460 lung
[17] = test system: RPMI-8226 leukemia
[18] = test system: CAKI-1 renal
[19] = test system: MCF7 breast
[20] = test system: HCC-2998 colon
[21] = test system: IGROV1 ovarian
[22] = test system: COLO 205 colon
[23] = test system: OVCAR-3 ovarian
[24] = test system: SN12C renal
[25] = test system: NCI-H522 lung
[26] = test system: NCI/ADR-RES ovarian
[27] = test system: SF-268 CNS
[28] = test system: BT-549 breast
[29] = test system: PC-3 prostate
[30] = test system: LOX IMVI melanoma
[31] = test system: UACC-62 melanoma
[32] = test system: DU-145 prostate
[33] = test system: HT29 colon
[34] = test system: A549 NSCLC
[35] = test system: MOLT-4 leukemia
[36] = test system: CCRF-CEM leukemia
[37] = test system: OVCAR-5 ovarian
[38] = test system: EKVX NSCLC
[39] = test system: OVCAR-8 ovarian
[40] = test system: SF-539 CNS
[41] = test system: MDA-MB-231 breast
[42] = test system: RXF 393 renal
[43] = test system: K-562 leukemia
[44] = test system: SK-MEL-2 melanoma
[45] = test system: MALME-3M melanoma
[46] = test system: HCT-15 colon
[47] = test system: HOP-92 NSCLC
[48] = test system: M14 melanoma
[49] = test system: A498 renal
[50] = test system: HL-60(TB) leukemia
[51] = test system: SNB-19 CNS
[52] = test system: OVCAR-4 ovarian
[53] = test system: HOP-62 NSCLC
[54] = test system: SR leukemia
[55] = test system: NCI-H23 lung
[56] = test system: ACHN renal
[57] = test system: SK-MEL-28 melanoma
[58] = test system: HCT-116 colon

SMILES: O=c1nc(Nc2ccc([N+](=O)[O-])cc2O)sc2ccccc12
- GI50 [1]: 0.858 µM
- TGI [1]: 5.41 µM
- GI50 [2]: 0.853 µM
- TGI [2]: > 16.7 µM
- GI50 [3]: > 16.7 µM
- TGI [3]: > 16.7 µM
- GI50 [4]: 4.3 µM
- TGI [4]: > 16.7 µM
- GI50 [5]: 6.06 µM
- TGI [5]: > 16.7 µM
- GI50 [6]: 0.783 µM
- TGI [6]: > 16.7 µM
- GI50 [7]: 0.576 µM
- TGI [7]: > 16.7 µM
- GI50 [8]: 0.307 µM
- TGI [8]: 1.2 µM
- GI50 [9]: 1.04 µM
- TGI [9]: > 16.7 µM
- GI50 [10]: 1.06 µM
- TGI [10]: > 16.7 µM
- GI50 [11]: 1.11 µM
- TGI [11]: > 16.7 µM
- GI50 [12]: 0.466 µM
- TGI [12]: > 16.7 µM
- GI50 [13]: 1.66 µM
- TGI [13]: > 16.7 µM
- GI50 [14]: 0.955 µM
- TGI [14]: > 16.7 µM
- GI50 [15]: 1.31 µM
- TGI [15]: > 16.7 µM
- GI50 [16]: 0.67 µM
- TGI [16]: > 16.7 µM
- GI50 [17]: 0.737 µM
- TGI [17]: 10.8 µM
- GI50 [18]: 0.659 µM
- TGI [18]: > 16.7 µM
- GI50 [19]: 0.637 µM
- TGI [19]: > 16.7 µM
- GI50 [20]: 4.39 µM
- TGI [20]: > 16.7 µM
- GI50 [21]: 1.11 µM
- TGI [21]: > 16.7 µM
- GI50 [22]: > 16.7 µM
- TGI [22]: > 16.7 µM
- GI50 [23]: 0.719 µM
- TGI [23]: > 16.7 µM
- GI50 [24]: 3.15 µM
- TGI [24]: > 16.7 µM
- GI50 [25]: 0.786 µM
- TGI [25]: 10.4 µM
- GI50 [26]: 0.532 µM
- TGI [26]: 4.47 µM
- GI50 [27]: 1.31 µM
- TGI [27]: > 16.7 µM
- GI50 [28]: 0.885 µM
- TGI [28]: > 16.7 µM
- GI50 [29]: 4.92 µM
- TGI [29]: > 16.7 µM
- GI50 [30]: 1.14 µM
- TGI [30]: > 16.7 µM
- GI50 [31]: 0.88 µM
- TGI [31]: > 16.7 µM
- GI50 [32]: 5.61 µM
- TGI [32]: > 16.7 µM
- GI50 [33]: > 16.7 µM
- TGI [33]: > 16.7 µM
- GI50 [34]: 4.58 µM
- TGI [34]: > 16.7 µM
- GI50 [35]: 3.73 µM
- TGI [35]: > 16.7 µM
- GI50 [36]: 4.47 µM
- TGI [36]: > 16.7 µM
- GI50 [37]: 9.42 µM
- TGI [37]: > 16.7 µM
- GI50 [38]: 4.05 µM
- TGI [38]: > 16.7 µM
- GI50 [39]: 3.83 µM
- TGI [39]: > 16.7 µM
- GI50 [40]: 0.696 µM
- TGI [40]: 8.94 µM
- GI50 [41]: 7.41 µM
- TGI [41]: > 16.7 µM
- GI50 [42]: 0.437 µM
- TGI [42]: 2.33 µM
- GI50 [43]: 0.557 µM
- TGI [43]: > 16.7 µM
- GI50 [44]: 1.18 µM
- TGI [44]: > 16.7 µM
- GI50 [45]: 4.09 µM
- TGI [45]: > 16.7 µM
- GI50 [46]: 0.756 µM
- TGI [46]: > 16.7 µM
- GI50 [47]: 2.3 µM
- TGI [47]: 15.9 µM
- GI50 [48]: 0.648 µM
- TGI [48]: > 16.7 µM
- GI50 [49]: 0.574 µM
- TGI [49]: 2.3 µM
- GI50 [50]: 0.662 µM
- TGI [50]: 3.69 µM
- GI50 [51]: 0.949 µM
- TGI [51]: > 16.7 µM
- GI50 [52]: 4.4 µM
- TGI [52]: > 16.7 µM
- GI50 [53]: 0.917 µM
- TGI [53]: > 16.7 µM
- GI50 [54]: 0.462 µM
- TGI [54]: > 16.7 µM
- GI50 [55]: 1.1 µM
- TGI [55]: > 16.7 µM
- GI50 [56]: 2.16 µM
- TGI [56]: > 16.7 µM
- GI50 [57]: 4.22 µM
- TGI [57]: > 16.7 µM
- GI50 [58]: 0.882 µM
- TGI [58]: > 16.7 µM
